Test results taken from patent US6372756B1, “Epimorphian compound and its use” (AvMax, Inc., priority 1998, dated 2002).
pIC50: −log10 of the molar value. Like-named read-outs stand apart in the source and are kept apart here.

Experiments:
[1] = tested on: interleukin-2 (IL-2) synthesis in OKT3-stimulated PBMCs; test: OKT3-stimulated human peripheral blood mononuclear cell assay, IL-2 secretion by ELISA; type: cell-based; conditions: for pIC50: OKT3 (1 μg/l) for 14 hours, curve fit, three independent experiments, read-out: IC50 of inhibition of IL-2 synthesis
Description: In an OKT3-stimulated human peripheral blood mononuclear cell assay, the relative biological activities of sinomenine and N-demethyl-sinomenine were tested.
The OKT3-stimulated human peripheral blood mononuclear cell assay was performed as described in Liu, L. et al., Inhibition of Lymphocyte Proliferation by the Anti-Arthritic Drug Sinomenine, Int. J. Immunopharmac., 16(8):685-691, (1994). Human Peripheral Blood Mononuclear Cells (PBMCS) were isolated from heparinized blood drawn from healthy adults. After separation from other blood components by density gradient centrifugation on Ficoll-hypaque (Biochrom, Berlin, Germany), the PBMCs were suspended in RPMI 1640 medium/10%FCS (RPMI 1640 medium with L-glutamine and nonessential amino acids: Gibco (Eggenstein, Germany); fetal calf serum (FCS): PAA Biologics (Marburg, Germany)).
The PBMCs (10^5 cells in a total volume of 150 μl per well) were activated by incubation with the monoclonal anti-T-cell receptor/CD3 complex antibody OKT3 (1 μg/l) for 14 hours. During this incubation, either sinomenine or N-demethyl-sinomenine was present in each of the main experimental wells at concentrations ranging from 10^−8 to 10^−3 M, as indicated on the x-axes of the graphs of FIGS. 10A and 10B. Control wells containing neither sinomenine nor its major metabolite were also prepared. The concentration of secreted IL-2 in the supernatants of activated PBMCs was determined using a commercial ELISA kit (Immunotech, Hamburg, Germany) following the manufacturer's instructions. In each of FIGS. 10A-B, the mean and standard error of three independent experiments are shown.
FIG. 10A presents the results for inhibition of IL-2 secretion by sinomenine. The concentration of IL-2 production, as a percentage of the control (100% equalled 1135 pg/ml, in this instance), was plotted against the molar concentration of sinomenine for each data point. The curves depicted were generated by a curve fit computer program (Microcal Origin Version 3.5). […]

human liver microsomes = test: Incubation of sinomenine with human liver microsomes and NADPH generating system, HPLC/UV; type: in vitro ADME
Description: The livers of male Sprague Dawley rats, treated with dexamethasone for two days, and human liver specimens provided the sources for the starting material. Liver microsomes were prepared using standard centrifugation techniques as described by Guengerich (Guengerich, F. P., et al., Microsomal Enzymes Involved in Toxicology-Analysis and Separation, In: Principles and Methods in Toxicology (Ed. Hayes A W), pp. 609-637, Raven Press, New York, (1982)) with some modifications. Specifically, phosphate buffer was used instead of TRIS buffer and microsomes were stored at −80° C. The protein concentration was determined using a bicinchoninic acid assay (Redingbaugh, M. G., et al., Adaptation of the Bicinchoninic Acit Protein Assay for Use With Microtiter Plates and Sucrose Gradient Fractions, Anal. Biochem., 153:267-271, (1986)) and adjusted with 0.1 M potassium phosphate buffer, pH 7.4, to 3 g/l. […]
The presence of sinomenine and N-demethyl-sinomenine over time in the presence of microsomes and an NADPH generating solution were determined by HPLC and ultraviolet (UV) analysis. […]
For the HPLC analysis, a 250×4 mm analytical column was prepared with endcapped C18 material of 5 μm particle size. […] Sinomenine and its metabolites were detected with a UV wavelength of 234 nm. […]

Lymphocyte proliferation = conditions: in vitro; cited from earlier work
[2] = in vivo; cited from earlier work
[3] = Water solubility inferred from retention on lipophilic reversed-phase HPLC column; type: physicochemical; conditions: evidenced by shorter retention time on lipophilic reversed-phase HPLC column
Source text: This characteristic of the novel compound results in a different oral bioavailability, pharmacokinetic profile, and organ distribution pattern than the known compound and also leads to ease in creating formulations for therapeutic use.
An HPLC system was also used for analysis of the sinomenine metabolism end products. For analytical HPLC, sinomenine and its metabolites were separated on a 250×4 mm LiChroCart column filled with endcapped Supersphere RP-18 material of 5 μm particle size and 100 Å pore width (Merck, Darmstadt, Germany).
The metabolite was prepared as described in Example 1. The samples were centrifuged (2000 g, 2 minutes) and 100 μl of the supernatant was injected into the analytical HPLC system. A control sample was prepared by the method described in Example 1 except that sinomenine and liver microsomes were incubated with an equal amount of phosphate buffer instead of with the NADPH generating solution. An HPLC run of the control sample was also made. The flow rate for the HPLC was set at 1 ml/min and the UV detection wavelength was 234 nm. The analytical column was kept at room temperature.
Sinomenine and its metabolites were isocratically eluted from the column with a mobile phase of 9.0/9.0/12.0/70.0 v/v/v/v methanol/acetonitrile/0.2 M sodium acetate/water, pH 5.5. The various fractions were quantified based on an external sinomenine calibration curve. […]

[4] = In vivo sinomenine metabolism, rat plasma; parameters: species or system female Lewis rats; conditions: sinomenine 150 mg/kg intraperitoneally, blood after 30 minutes
Description: (§1) More particularly, to study its metabolism in vivo, sinomenine was injected intraperitoneally into female Lewis rats at a concentration of 150 mg/kg body weight. Blood was taken after 30 minutes from the rat tail vein and plasma samples were prepared from the blood samples via standard techniques. In a parallel study, MRL-1 pr mice were injected intraperitoneally with either sinomenine at a concentration of 100 mg/kg body weight or physiological saline. Mouse urine was collected over a period of 24 hours.
(§2) The collected samples of rat blood and mouse urine from each of these studies were split so that testing could be performed immediately and after storage at −20° C. for one week. HPLC and GC/MS analysis was performed and there were no statistically significant differences in the results obtained from the immediately tested and the frozen samples.
(§3) A metabolite peak with the same relative retention time as the major metabolite isolated after incubation of sinomenine and NADPH generating solution with rat microsomes or human liver microsomes was obtained upon analysis of the rat blood and mouse urine samples. […] FIGS. 9A-B show HPLC chromatograms run on urine samples obtained from mice treated with saline (FIG. 9A) or with sinomenine (FIG. 9B). […]

[5] = In vivo sinomenine metabolism, mouse urine; parameters: species or system MRL-1 pr mice; conditions: sinomenine 100 mg/kg intraperitoneally, urine collected over 24 hours
Description: as §1, §2, §3

In the case of COC1=C[C@@H]2[C@@H]3Cc4ccc(OC)c(O)c4[C@]2(CCN3C)CC1=O [sinomenine, reference compound], the pIC50 ([1]; Homo sapiens, PBMC) is listed as 4.00, the “amounts of sinomenine and its major metabolite” value (human liver microsomes; 120 minutes after the start of the reaction, human liver microsomes) is listed as “approximately equal amounts” and the “effect on lymphocyte proliferation” value (Lymphocyte proliferation) is listed as “inhibited by sinomenine in a reversible manner without exhibiting direct cytotoxic effects”. The side effects [2] was “minor side effects such as mild pain, cough, and diarrhea”.
In the case of COC1=C[C@H]2[C@H]3Cc4ccc(OC)c(O)c4[C@@]2(CCN3)CC1=O [N-demethyl-sinomenine], the pIC50 [1] was 4.70, the “biological activity (IL-2 inhibition IC50) relative to sinomenine” value ([1]; same assay, relative to sinomenine) was “approximately five” and the “share of all sinomenine metabolic products” value (human liver microsomes; believed to represent) was “approximately 90%”. The “water solubility relative to sinomenine” value [3] was “greater water solubility”, the “detection as metabolite in plasma” value [4] was “detected as a metabolite” and the “detection as metabolite in urine” value [5] was “detected as a metabolite”.
